These are literature values, as cited in patent US9290518B2, “Water soluble metal-organic frameworks (MOFs)” (Council of Scientific and Industrial Research, priority 2011, dated 2016).

For the data set the following is noted: 25° C., 98% RH, literature.

With `O=C1N2CN3C(=O)N4CN5C(=O)N6CN7C(=O)N8CN9C(=O)N%10CN%11C(=O)N%12CN1C1C2N2CN%13C(=O)N(CN%14C(=O)N(CN%15C(=O)N(CN%16C(=O)N(CN%17C(=O)N(CN1C2=O)C%12C%11%17)C%10C9%16)C8C7%15)C6C5%14)C4C3%13` (stereo not shown) [cucurbit [6]uril], the proton conductivity is given as 1.1×10^−3 S cm^−1.
